# PubChem BioAssay AID2060512 (Molecular Pharmacology Branch, DTP, NCI, 2025)
# System: 186277-243-T-J2-PDC complex spheroid viability
# Test: Anticancer human tumor 186277-243-T-J2-PDC patient-derived colon adenocarcinoma cell line growth inhibition [GQUAD]
# Conditions: for IC50: curve of first compound; for viability, T/C: stronger effect = lower value
# Method in brief: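 Viability of tumor cells grown as complex spheroids with endothelial and stromal cells, exposed to drug combinations. Top concentration at or near clinical Cmax (else 10 microM), diluted in half-log increments.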
# [1] = second compound 0.0316 µM, first compound 0.0316 µM
# [2] = second compound 0.0316 µM, first compound 0.1 µM
# [3] = second compound 0.0316 µM, first compound 0.316 µM
# [4] = second compound 0.0316 µM, first compound 1 µM
# [5] = second compound 0.0316 µM, first compound 3.16 µM
# [6] = second compound 0.0316 µM, first compound 10 µM
# [7] = second compound 0.1 µM, first compound 0.0316 µM
# [8] = second compound 0.1 µM, first compound 0.1 µM
# [9] = second compound 0.1 µM, first compound 0.316 µM
# [10] = second compound 0.1 µM, first compound 1 µM
# [11] = second compound 0.1 µM, first compound 3.16 µM
# [12] = second compound 0.1 µM, first compound 10 µM
# [13] = second compound 0.316 µM, first compound 0.0316 µM
# [14] = second compound 0.316 µM, first compound 0.1 µM
# [15] = second compound 0.316 µM, first compound 0.316 µM
# [16] = second compound 0.316 µM, first compound 1 µM
# [17] = second compound 0.316 µM, first compound 3.16 µM
# [18] = second compound 0.316 µM, first compound 10 µM
# [19] = second compound 1 µM, first compound 0.0316 µM
# [20] = second compound 1 µM, first compound 0.1 µM
# [21] = second compound 1 µM, first compound 0.316 µM
# [22] = second compound 1 µM, first compound 1 µM
# [23] = second compound 1 µM, first compound 3.16 µM
# [24] = second compound 1 µM, first compound 10 µM
# [25] = second compound 3.16 µM, first compound 0.0316 µM
# [26] = second compound 3.16 µM, first compound 0.1 µM
# [27] = second compound 3.16 µM, first compound 0.316 µM
# [28] = second compound 3.16 µM, first compound 1 µM
# [29] = second compound 3.16 µM, first compound 3.16 µM
# [30] = second compound 3.16 µM, first compound 10 µM
# [31] = second compound 10 µM, first compound 0.0316 µM
# [32] = second compound 10 µM, first compound 0.1 µM
# [33] = second compound 10 µM, first compound 0.316 µM
# [34] = second compound 10 µM, first compound 1 µM
# [35] = second compound 10 µM, first compound 3.16 µM
# [36] = second compound 10 µM, first compound 10 µM
# 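Wherever viability, T/C is given: 100% = DMSO vehicle control viability.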
smiles,measurement,setting,value
C=CC(=O)N1CCN(c2nc(=O)n(-c3c(C)ccnc3C(C)C)c3nc(-c4c(O)cccc4F)c(F)cc23)C(C)C1 (stereo unspecified) + CN(C)c1ccc(Nc2c3ccc(NC(=O)CCN4CCCC4)cc3nc3cc(NC(=O)CCN4CCCC4)ccc23)cc1,IC50,second compound 0.0316 µM,> 10 µM
same,IC50,second compound 0.1 µM,> 10 µM
same,IC50,second compound 0.316 µM,> 10 µM
same,IC50,second compound 1 µM,> 10 µM
same,IC50,second compound 3.16 µM,> 10 µM
same,IC50,second compound 10 µM,> 10 µM
same,"viability, T/C",[1],105%
same,"viability, T/C",[2],85.5%
same,"viability, T/C",[3],90.1%
same,"viability, T/C",[4],81.7%
same,"viability, T/C",[5],104%
same,"viability, T/C",[6],96.6%
same,"viability, T/C",[7],111%
same,"viability, T/C",[8],96.1%
same,"viability, T/C",[9],101%
same,"viability, T/C",[10],71.9%
same,"viability, T/C",[11],111%
same,"viability, T/C",[12],88.3%
same,"viability, T/C",[13],104%
same,"viability, T/C",[14],94.6%
same,"viability, T/C",[15],87.3%
same,"viability, T/C",[16],90.5%
same,"viability, T/C",[17],92.6%
same,"viability, T/C",[18],95.2%
same,"viability, T/C",[19],93.9%
same,"viability, T/C",[20],89.8%
same,"viability, T/C",[21],88.4%
same,"viability, T/C",[22],101%
same,"viability, T/C",[23],105%
same,"viability, T/C",[24],97.3%
same,"viability, T/C",[25],95.3%
same,"viability, T/C",[26],87.2%
same,"viability, T/C",[27],97.6%
same,"viability, T/C",[28],89.8%
same,"viability, T/C",[29],101%
same,"viability, T/C",[30],95.3%
same,"viability, T/C",[31],91.7%
same,"viability, T/C",[32],80.2%
same,"viability, T/C",[33],98.4%
same,"viability, T/C",[34],96%
same,"viability, T/C",[35],111%
same,"viability, T/C",[36],88.1%
COc1ncnc(C2CC2)c1-c1ncc2cnn(Cc3ccc(-c4nc(C(F)(F)F)cn4C(C)C)cc3)c2n1 + Cc1[nH]c2ccc(F)cc2c1-c1nc2c3cccnc3c3ncccc3c2[nH]1,IC50,second compound 0.0316 µM,> 10 µM
same,IC50,second compound 0.1 µM,> 10 µM
same,IC50,second compound 0.316 µM,> 10 µM
same,IC50,second compound 1 µM,> 10 µM
same,IC50,second compound 3.16 µM,> 10 µM
same,IC50,second compound 10 µM,> 10 µM
same,"viability, T/C",[1],116%
same,"viability, T/C",[2],91.6%
same,"viability, T/C",[3],95.1%
same,"viability, T/C",[4],84.4%
same,"viability, T/C",[5],111%
same,"viability, T/C",[6],97.4%
same,"viability, T/C",[7],87.5%
same,"viability, T/C",[8],98.7%
same,"viability, T/C",[9],99.8%
same,"viability, T/C",[10],95.2%
same,"viability, T/C",[11],112%
same,"viability, T/C",[12],86.2%
same,"viability, T/C",[13],104%
same,"viability, T/C",[14],95.7%
same,"viability, T/C",[15],94.2%
same,"viability, T/C",[16],111%
same,"viability, T/C",[17],108%
same,"viability, T/C",[18],96%
same,"viability, T/C",[19],92.5%
same,"viability, T/C",[20],105%
same,"viability, T/C",[21],107%
same,"viability, T/C",[22],93.9%
same,"viability, T/C",[23],116%
same,"viability, T/C",[24],104%
same,"viability, T/C",[25],103%
same,"viability, T/C",[26],115%
same,"viability, T/C",[27],97.3%
same,"viability, T/C",[28],102%
same,"viability, T/C",[29],99.9%
same,"viability, T/C",[30],89.9%
same,"viability, T/C",[31],105%
same,"viability, T/C",[32],101%
same,"viability, T/C",[33],99.1%
same,"viability, T/C",[34],94.4%
same,"viability, T/C",[35],113%
same,"viability, T/C",[36],97%
COc1ccc([C@@H](O)c2cc(-c3ncnc4cc(N5CCOCC5)ccc34)c(F)cc2Cl)nn1 + Cc1[nH]c2ccc(F)cc2c1-c1nc2c3cccnc3c3ncccc3c2[nH]1,IC50,second compound 0.0316 µM,4.92 µM
same,IC50,second compound 0.1 µM,6.89 µM
same,IC50,second compound 0.316 µM,6.47 µM
same,IC50,second compound 1 µM,5.92 µM
same,IC50,second compound 3.16 µM,4.99 µM
same,IC50,second compound 10 µM,5.74 µM
same,"viability, T/C",[1],95.7%
same,"viability, T/C",[2],101%
same,"viability, T/C",[3],97.2%
same,"viability, T/C",[4],80.9%
same,"viability, T/C",[5],66.3%
same,"viability, T/C",[6],25.9%
same,"viability, T/C",[7],94.5%
same,"viability, T/C",[8],89.9%
same,"viability, T/C",[9],104%
same,"viability, T/C",[10],99.5%
same,"viability, T/C",[11],85.2%
same,"viability, T/C",[12],33.1%
same,"viability, T/C",[13],105%
same,"viability, T/C",[14],94.8%
same,"viability, T/C",[15],103%
same,"viability, T/C",[16],106%
same,"viability, T/C",[17],81.5%
same,"viability, T/C",[18],30.9%
same,"viability, T/C",[19],89.2%
same,"viability, T/C",[20],90%
same,"viability, T/C",[21],115%
same,"viability, T/C",[22],102%
same,"viability, T/C",[23],71.2%
same,"viability, T/C",[24],32.4%
same,"viability, T/C",[25],93.4%
same,"viability, T/C",[26],92.7%
same,"viability, T/C",[27],112%
same,"viability, T/C",[28],85.3%
same,"viability, T/C",[29],68.6%
same,"viability, T/C",[30],23.2%
same,"viability, T/C",[31],93.4%
same,"viability, T/C",[32],91.4%
same,"viability, T/C",[33],114%
same,"viability, T/C",[34],88.8%
same,"viability, T/C",[35],66.7%
same,"viability, T/C",[36],34.9%
